In patent publication US7981939B2, “Application of 2-bromide-isovanillin for the manufacture of a medicament for anti-cancer or/and radiation/chemotherapy sensitization” (Institute of Radiation Medicine, Academy of Military …, priority 2005, dated 2011):

Assays:
[1] = system: human cervical cancer cell line HeLa; experiment: MTT assay, proliferation of HeLa cells; assay type: cell-based; details: for effect on the proliferation of HeLa cells: concentrations of less than 40 μmol/L, up to 72 hrs
Method: Human cervical cancer cell line HeLa, human liver cancer cell line HepG2/7221/7402, human ovarian cancer cell line HOC8/A2780, human glioma cell line BT325, lung cancer cell line A549, brain metastatic lung cancer cell line BT72 and normal human hepatic cell line LO2 were all grown in DMEM liquid medium supplemented with 10% newborn calf serum. Human leukemia cell line Jurkat was grown in 1640 medium supplemented with 10% newborn calf serum. The above cell lines were cultured in a CO2 incubator at 5% CO2 at 37° C.
By way of example, human cervical cancer cell line HeLa was used to study the effect of vanillin on the proliferation of cancer cells by MTT assay. Specifically, human cervical cancer cells HeLa were seeded into a 96-well plate at a density of 5×10^3 cells/well, and were divided into four groups. To each of the groups vanillin was added at a concentration of 0, 100, 250 or 500 μmol/L, respectively, and was allowed to grow for 4 days. Using the MTT assay, the optical density (OD) values at 490 nm were measured and recorded every day, wherein the OD value is indicative of the number of cells, i.e., the proliferation of cells.
By way of example, human cervical cancer cell line HeLa was used to study the effect of several vanillin derivatives for 72 hrs on the proliferation of cancer cells by MTT assay. Specifically, human cervical cancer cells HeLa were seeded into a 96-well plate at a density of 5×10^3 cells/well, and were divided into four groups. To each of the groups were added increasing concentrations (0, 10, 20, 30, 40 μmol/L) of vanillin derivatives ethyl vanillin (Code No. VAND3206), 4-methoxy vanillin (Code No. VAND3207), isovanillin (Code No. VAND3209) and 2-bromo-isovanillin (Code No. VAND3208), and the cells were cultured for 72 hrs. Using the MTT assay, the optical density (OD) values at 490 nm were measured and recorded every day, wherein the OD value is indicative of the number of cells, i.e., the proliferation of cells.
By way of example, human cervical cancer cell line HeLa was used to study the inhibitory effect of 2-bromo-isovanillin at different concentrations for different periods of time on the proliferation of cancer cells by MTT assay. Specifically, human cervical cancer cells HeLa were seeded into a 96-well plate at a density of 5×10^3 cells/well, and were divided into […]. To each of the groups 2-bromo-isovanillin was added at a concentration of 0, 10, 20, 30, 40 or 50 μmol/L, and was cultured for 14 days, respectively. Using the MTT assay, the optical density (OD) values at 490 nm were measured and recorded every day, wherein the OD value is indicative of the number of cells, i.e., the proliferation of cells.

[2] = target: T1, nuclear protein DNA-PKcs serine/threonine protein kinase (Homo sapiens, UniProt P78527); experiment: DNA-PKcs kinase activity in nuclear protein of treated HepG2 cells; assay type: cell-based; details: HepG2, 100 μmol/L, 24 hrs
T1 construct: adding nuclear proteins to the solid phase reaction system; endogenous in cells; host or cells: HepG2 human liver cancer cells (nuclear protein extract)
Method: The activity of nuclear protein DNA-PKcs serine/threonine protein kinase in human liver cancer cells HepG2 treated with 0, 10, 20, 40, 100 μmol/L 2-bromo-isovanillin for 24 hrs was determined by using […] DNA dependent protein kinase assay kit (Promega), according to the manufacturer's instructions, and the treatment with 100 μmol/L vanillin for the same period of time served as control. Basically, the assay was carried out by immobilizing the phosphorylation substrate specific to DNA-PKcs, i.e., a peptide derived from p53 protein onto a cellulose membrane, adding nuclear proteins to the solid phase reaction system, isotopically labeling the substrate by phosphorylation using γ-^32P ATP, removing non-specific signals after the isotope labeling, and visualizing the kinase activity upon X-ray film developing.

Row | SMILES | effect on the proliferation of HeLa cells [1] | concentration at which proliferation of cancer cells was effectively inhibited ([1]; HeLa, 0-500 μmol/L, 4 days, OD at 490 nm) | inhibitory effect on DNA-PKcs kinase activity compared with 2-bromo-isovanillin [2]
1 | COc1ccc(C=O)cc1O [VAND3209, isovanillin] | no inhibitory effect | – | –
2 | CCOc1cc(C=O)ccc1O [ethyl vanillin] | no inhibitory effect | – | –
3 | COc1cc(C=O)ccc1O [vanillin] | – | above 250 μmol/L | significantly weaker
